In ChEMBL document CHEMBL1201862, “PubChem BioAssay data set” (2004):
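Protocol summary: plate cells (96-well), add compound at 5 concentrations, incubate 48 h, interpolate endpoints linearly. At the GI50, growth is halved.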 Calls of active or inactive are those of the source. Rule as the data show it: active = GI50 up to about 1.1 µM and inactive = higher.

Experiments:
Test in all cases: inhibition of tumour cell growth, NCI panel, 48 h
[1] = tested on: HCT-116
[2] = tested on: SNB-75
[3] = tested on: SW-620
[4] = tested on: COLO 205
[5] = tested on: HT-29
[6] = tested on: NCI-H23
[7] = tested on: SF-295
[8] = tested on: UO-31
[9] = tested on: HCT-15
[10] = tested on: Malme-3M
[11] = tested on: BT-549
[12] = tested on: OVCAR-8
[13] = tested on: SK-MEL-28
[14] = tested on: CAKI-1
[15] = tested on: HL-60
[16] = tested on: HOP-62
[17] = tested on: Hs-578T
[18] = tested on: DU-145
[19] = tested on: SR
[20] = tested on: RXF 393

## CN(CC(=O)N1CC(CCl)c2ccc([N+](=O)[O-])cc21)CC(=O)N1CC(CCl)c2ccc([N+](=O)[O-])cc21 (stereo not given)
[1]
  GI50: > 100 µM (inactive)
[2]
  GI50: > 100 µM (inactive)
[3]
  GI50: > 100 µM (inactive)
[4]
  GI50: > 100 µM (inactive)
[5]
  GI50: > 100 µM (inactive)
[6]
  GI50: > 100 µM (inactive)
[7]
  GI50: > 100 µM (inactive)
[8]
  GI50: > 100 µM (inactive)
[9]
  GI50: > 100 µM
[10]
  GI50: > 100 µM (inactive)
[11]
  GI50: > 100 µM (inactive)
[12]
  GI50: > 100 µM (inactive)
[13]
  GI50: > 100 µM (inactive)
[14]
  GI50: > 100 µM (inactive)
[15]
  GI50: > 100 µM (inactive)
[16]
  GI50: > 100 µM (inactive)
[17]
  GI50: > 100 µM (inactive)
[18]
  GI50: > 100 µM (inactive)

## C1CSCC2(COC2)CS1
[1]
  GI50: > 100 µM (inactive)
[2]
  GI50: > 100 µM (inactive)
[3]
  GI50: > 100 µM (inactive)
[4]
  GI50: > 100 µM (inactive)
[5]
  GI50: > 100 µM (inactive)
[6]
  GI50: > 100 µM (inactive)
[7]
  GI50: > 100 µM (inactive)
[8]
  GI50: > 100 µM (inactive)
[19]
  GI50: > 100 µM (inactive)
[12]
  GI50: > 100 µM (inactive)
[13]
  GI50: > 100 µM (inactive)
[20]
  GI50: > 100 µM (inactive)
[17]
  GI50: > 100 µM (inactive)
[18]
  GI50: > 100 µM (inactive)

## CS/C(=N\c1ccccc1)N(c1ccccc1)c1nc(=[N+](C)C)ss1.[O-][Cl+3]([O-])([O-])[O-]
[1]
  GI50: 2.56 µM (inactive)
[2]
  GI50: 4.71 µM (inactive)
[3]
  GI50: 1.36 µM (inactive)
[4]
  GI50: 0.0647 µM (active)
[5]
  GI50: 0.034 µM (active)
[6]
  GI50: 4.48 µM (inactive)
[7]
  GI50: 12.5 µM (inactive)
[8]
  GI50: 15.1 µM (inactive)
[9]
  GI50: 2.26 µM
[10]
  GI50: 2.79 µM (inactive)
[19]
  GI50: 2.16 µM (inactive)
[12]
  GI50: 2.44 µM (inactive)
[13]
  GI50: 1.14 µM (inactive)
[14]
  GI50: 3.48 µM (inactive)
[15]
  GI50: 0.927 µM (active)
[20]
  GI50: 4.13 µM (inactive)
[16]
  GI50: 13.9 µM (inactive)

## CN1CN(c2ccccc2)C2(CCN(CCCCCCF)CC2)C1=O
[1]
  GI50: 28.8 µM (inactive)
[2]
  GI50: > 100 µM (inactive)
[3]
  GI50: 53.8 µM (inactive)
[4]
  GI50: 21.1 µM (inactive)
[5]
  GI50: 30.9 µM (inactive)
[6]
  GI50: 94 µM (inactive)
[7]
  GI50: 82 µM (inactive)
[8]
  GI50: 26.7 µM (inactive)
[9]
  GI50: 54.5 µM
[10]
  GI50: > 100 µM (inactive)
[11]
  GI50: 3.41 µM (inactive)
[19]
  GI50: > 100 µM (inactive)
[12]
  GI50: > 100 µM (inactive)
[13]
  GI50: > 100 µM (inactive)
[14]
  GI50: 41.9 µM (inactive)
[15]
  GI50: > 100 µM (inactive)
[20]
  GI50: > 100 µM (inactive)
[16]
  GI50: 31.1 µM (inactive)
[18]
  GI50: 44.1 µM (inactive)

## COc1cccc(-n2nnc3c(N)nc(N)nc32)c1
[1]
  GI50: > 100 µM (inactive)
[2]
  GI50: 15.7 µM (inactive)
[3]
  GI50: > 100 µM (inactive)
[4]
  GI50: > 100 µM (inactive)
[5]
  GI50: > 100 µM (inactive)
[6]
  GI50: 28.9 µM (inactive)
[7]
  GI50: > 100 µM (inactive)
[9]
  GI50: > 100 µM
[10]
  GI50: > 100 µM (inactive)
[11]
  GI50: > 100 µM (inactive)
[12]
  GI50: > 100 µM (inactive)
[13]
  GI50: > 100 µM (inactive)
[14]
  GI50: > 100 µM (inactive)
[15]
  GI50: > 100 µM (inactive)
[16]
  GI50: > 100 µM (inactive)
[18]
  GI50: > 100 µM (inactive)

## Nc1c(C(=O)c2ccccc2)nnc2ccccc12
[1]
  GI50: 24.6 µM (inactive)
[3]
  GI50: 41.2 µM (inactive)
[4]
  GI50: 18.5 µM (inactive)
[5]
  GI50: 25.8 µM (inactive)
[6]
  GI50: 24.8 µM (inactive)
[8]
  GI50: 24.7 µM (inactive)
[9]
  GI50: 30.1 µM
[10]
  GI50: 27 µM (inactive)
[11]
  GI50: 18.7 µM (inactive)
[19]
  GI50: 38.4 µM (inactive)
[12]
  GI50: 33.7 µM (inactive)
[13]
  GI50: 43.9 µM (inactive)
[14]
  GI50: 29.5 µM (inactive)
[15]
  GI50: < 0.01 µM (active)
[16]
  GI50: 24.5 µM (inactive)
[18]
  GI50: 23.4 µM (inactive)

## CCOC(=O)c1c(SCc2ccccc2)nc2c3ccccc3ccn12
[1]
  GI50: > 100 µM (inactive)
[2]
  GI50: 25.9 µM (inactive)
[3]
  GI50: > 100 µM (inactive)
[4]
  GI50: > 100 µM (inactive)
[5]
  GI50: > 100 µM (inactive)
[6]
  GI50: > 100 µM (inactive)
[7]
  GI50: 40.7 µM (inactive)
[9]
  GI50: > 100 µM
[10]
  GI50: 63.7 µM (inactive)
[19]
  GI50: 47 µM (inactive)
[12]
  GI50: 83.6 µM (inactive)
[13]
  GI50: > 100 µM (inactive)
[14]
  GI50: > 100 µM (inactive)
[15]
  GI50: > 100 µM (inactive)
[20]
  GI50: 70.6 µM (inactive)
[16]
  GI50: 40.1 µM (inactive)
[17]
  GI50: 21.4 µM (inactive)
[18]
  GI50: > 100 µM (inactive)

## COc1ccc(/C=C/C(=N\NC(=O)c2ccccc2)c2sc(Nc3ccc([N+](=O)[O-])cc3)nc2C)cc1OC
[1]
  GI50: 7.31 µM (inactive)
[2]
  GI50: 5.57 µM (inactive)
[3]
  GI50: 16 µM (inactive)
[4]
  GI50: 21.3 µM (inactive)
[5]
  GI50: 17 µM (inactive)
[6]
  GI50: > 10 µM (inactive)
[7]
  GI50: 11.2 µM (inactive)
[8]
  GI50: 15.6 µM (inactive)
[9]
  GI50: 7.89 µM
[10]
  GI50: 19.2 µM (inactive)
[19]
  GI50: 5.18 µM (inactive)
[12]
  GI50: 9.57 µM (inactive)
[13]
  GI50: 21.1 µM (inactive)
[14]
  GI50: 17.7 µM (inactive)
[15]
  GI50: 2.62 µM (inactive)
[20]
  GI50: 12.9 µM (inactive)
[16]
  GI50: 18.2 µM (inactive)
